# Patent publication US20240287138A1, “CYCLIC PEPTIDES FOR INHIBITING TNF RECEPTOR 1 ACTIVITY” (Merck Sharp & Dohme LLC, priority 2023, published 2024)
# Like-named read-outs stand apart in the source and are kept apart here. Numbered stars: 1 amine (or outer) side, 2 acyl side, 3 side chain; on linkers, the order of the positions; unused ones are H or OH. Square brackets hold non-standard residues; d marks the D form. Peptide text beside a SMILES is read from it. * marks the point of attachment. Trp(βS-Me,7-OMe) = COc1cccc2c([C@H](C)[C@H](N)C(=O)O)c[nH]c12; Trp(1-CH2COOH) = N[C@@H](Cc1cn(CC(=O)O)c2ccccc12)C(=O)O; Phe(4-SO2NH2) = N[C@@H](Cc1ccc(S(N)(=O)=O)cc1)C(=O)O; dPro(trans-4-NMe2) = CN(C)[C@@H]1CN[C@@H](C(=O)O)C1; Trp(7-CN) = N#Cc1cccc2c(C[C@H](N)C(=O)O)c[nH]c12; X20 = O=C1NCc2ccc(C[C@H](N[*:1])C(=O)[*:2])cc21; Phe(3-CONH2) = NC(=O)c1cccc(C[C@H](N)C(=O)O)c1; Phe(4-CONH2) = NC(=O)c1ccc(C[C@H](N)C(=O)O)cc1; Phe(4-COOH) = N[C@@H](Cc1ccc(C(=O)O)cc1)C(=O)O; dPro(trans-4-F) = O=C(O)[C@H]1C[C@H](F)CN1; dPro(4S-NH2) = N[C@@H]1CN[C@@H](C(=O)O)C1; Pip(5R-OH) = O=C(O)[C@@H]1CC[C@@H](O)CN1; X1 = O=C([C@@H]1CC[C@H](N[*:1])C1)[*:2]; 4Pal = N[C@@H](Cc1ccncc1)C(=O)O; dHyp = O=C(O)[C@H]1C[C@H](O)CN1; αMeS = C[C@](N)(CO)C(=O)O; Carboxymethyl = O=C(O)C*; Nle = CCCC[C@H](N)C(=O)O; Sar = CNCC(=O)O
# Columns and labels:
# [1] = target: T1, human TNFR2 ECD protein (Homo sapiens, UniProt P20333); assay: SPR off-target binding (selectivity) to human TNFR2 ECD
# T1 construct: HRV 3C protease cleavage site (C); 6His (C, cleaved yes); made in house; host or cells: Sf21 insect cells (baculovirus), secreted
# T1 sequence (P20333 23-257): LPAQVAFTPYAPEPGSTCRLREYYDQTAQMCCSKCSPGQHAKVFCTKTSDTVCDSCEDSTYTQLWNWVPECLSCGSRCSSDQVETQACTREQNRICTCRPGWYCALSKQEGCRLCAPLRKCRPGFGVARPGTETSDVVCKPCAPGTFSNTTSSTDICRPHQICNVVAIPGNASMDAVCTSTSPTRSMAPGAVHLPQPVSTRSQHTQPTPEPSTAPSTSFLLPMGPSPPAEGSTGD
# Procedure, shortened: (§1)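 Peptide binding kinetics read by SPR in HEPES pH 7.4 running buffer with 2% DMSO, with TNFR2 ECD tested in parallel for off-target binding. Receptor ECDs, insect-cell expressed and biotinylated at C-terminal avi-tag, were captured via streptavidin. KA derived from association and dissociation rate constants.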
# [2] = target: T2, TNFα-induced NF-κB signal transduction pathway (TNFR1 signaling) in THP-1 cells (Homo sapiens, UniProt P19438); assay: THP-1 Lucia NF-κB reporter cell assay, inhibition of TNFα-induced NF-κB signaling; format: cell-based; conditions: THP-1 NF-κB Lucia reporter cells, 10 ng/mL TNFα, 16-18 h, secreted luciferase; read-out: THP-1 IC50
# T2 sequence (P19438 30-455): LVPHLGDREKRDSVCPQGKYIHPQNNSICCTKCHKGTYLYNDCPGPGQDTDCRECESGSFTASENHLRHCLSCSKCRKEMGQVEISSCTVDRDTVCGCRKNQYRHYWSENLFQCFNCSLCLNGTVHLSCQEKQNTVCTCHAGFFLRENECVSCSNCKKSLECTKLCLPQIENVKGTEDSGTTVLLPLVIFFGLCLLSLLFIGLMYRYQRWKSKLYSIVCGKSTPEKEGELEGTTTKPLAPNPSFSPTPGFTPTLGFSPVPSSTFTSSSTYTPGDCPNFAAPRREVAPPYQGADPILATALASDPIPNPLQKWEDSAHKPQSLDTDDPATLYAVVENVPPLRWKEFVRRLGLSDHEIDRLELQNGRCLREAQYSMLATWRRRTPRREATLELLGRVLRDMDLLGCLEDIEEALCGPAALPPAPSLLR
# Procedure, shortened: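 Read-out: secreted Lucia luciferase luminescence (QUANTI-Luc) from supernatant after 16-18 h, 37 °C, 10 ng/mL rhTNFα. Peptide pretreatment 1 h at 37 °C; 20,000 cells/well, selection antibiotics omitted. IC50 via 4-parameter logistic model against min/max controls.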
# [3] = target: T3, human TNFR1 extracellular domain (ECD) protein (Homo sapiens, UniProt P19438); assay: SPR binding affinity to captured human TNFR1 ECD
# T3 construct: HRV 3C protease cleavage site (C); 6His (C, cleaved yes); made in house; host or cells: Sf21 insect cells (baculovirus), secreted
# T3 sequence (P19438 30-211): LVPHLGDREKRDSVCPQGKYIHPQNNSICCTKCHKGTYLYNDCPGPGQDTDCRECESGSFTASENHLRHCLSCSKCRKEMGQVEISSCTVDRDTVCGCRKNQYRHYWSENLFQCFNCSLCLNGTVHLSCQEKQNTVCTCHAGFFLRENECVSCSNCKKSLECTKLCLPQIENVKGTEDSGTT
# Procedure, shortened: as §1
# [4] = biotinylated human TNFR2 ECD on streptavidin chip, read-out: SPR hTNFR2 KD
# [5] = biotinylated human TNFR1 ECD on streptavidin chip, from kon and koff, read-out: SPR hTNFR1 KD
SMILES,Kd [1] [nM],IC50 [2] [nM],Kd [3] [nM],"Kd [1, 4] [nM]","Kd [3, 5] [nM]"
"CCCC[C@@H]1NC(=O)[C@@H]2CC[C@@H](C2)NC(=O)[C@H]([C@@H](C)c2c[nH]c3c(OC)cccc23)NC(=O)CN(C)C(=O)[C@H](Cc2ccc(C(N)=O)cc2)NC(=O)[C@H](Cc2ccc(S(N)(=O)=O)cc2)NC(=O)[C@](C)(CO)NC(=O)[C@H](Cc2c[nH]c3c(C#N)cccc23)NC(=O)[C@H](Cc2ccc(C(=O)O)cc2)NC(=O)[C@H](CC(N)=O)NC(=O)[C@H]2C[C@H](N(C)C)CN2C(=O)[C@H](Cc2cn(CC(=O)O)c3ccccc23)NC(=O)[C@@H]2CC[C@@H](O)CN2C(=O)[C@H](Cc2ccncc2)NC1=O [SEQ ID NO. 2] (cyclo([4Pal][Pip(5R-OH)][Trp(1-CH2COOH)][dPro(trans-4-NMe2)]N[Phe(4-COOH)][Trp(7-CN)][αMeS][Phe(4-SO2NH2)][Phe(4-CONH2)][Sar][Trp(βS-Me,7-OMe)][X1][Nle]))",> 1000,0.5,0.07,,
"CCCC[C@@H]1NC(=O)[C@@H]2CC[C@@H](C2)NC(=O)[C@H]([C@@H](C)c2c[nH]c3c(OC)cccc23)NC(=O)CN(C)C(=O)[C@H](Cc2ccc(OCC(=O)O)cc2)NC(=O)[C@H](Cc2ccc(S(N)(=O)=O)cc2)NC(=O)[C@](C)(CO)NC(=O)[C@H](Cc2c[nH]c3c(C#N)cccc23)NC(=O)[C@H](Cc2ccc(OCC(=O)O)cc2)NC(=O)[C@H](CC(N)=O)NC(=O)[C@H]2C[C@H](N)CN2C(=O)[C@H](Cc2cn(CC(=O)O)c3ccccc23)NC(=O)[C@@H]2CC[C@@H](O)CN2C(=O)[C@H](Cc2ccncc2)NC1=O [SEQ ID NO. 18] (cyclo([4Pal][Pip(5R-OH)][Trp(1-CH2COOH)][dPro(4S-NH2)]NY(Carboxymethyl)[Trp(7-CN)][αMeS][Phe(4-SO2NH2)]Y(Carboxymethyl)[Sar][Trp(βS-Me,7-OMe)][X1][Nle]))",,0.6,,> 1000,0.05
"CCCC[C@@H]1NC(=O)[C@@H]2CC[C@@H](C2)NC(=O)[C@H]([C@@H](C)c2c[nH]c3c(OC)cccc23)NC(=O)CN(C)C(=O)[C@H](Cc2cccc(C(N)=O)c2)NC(=O)[C@H](Cc2ccc(C(N)=O)cc2)NC(=O)[C@](C)(CO)NC(=O)[C@H](Cc2c[nH]c3c(C#N)cccc23)NC(=O)[C@H](Cc2ccc(C(=O)O)cc2)NC(=O)[C@H](CC(N)=O)NC(=O)[C@H]2C[C@H](F)CN2C(=O)[C@H](Cc2c[nH]c3ccccc23)NC(=O)[C@@H]2CC[C@@H](O)CN2C(=O)[C@H](Cc2ccncc2)NC1=O [SEQ ID NO. 21] (cyclo([4Pal][Pip(5R-OH)]W[dPro(trans-4-F)]N[Phe(4-COOH)][Trp(7-CN)][αMeS][Phe(4-CONH2)][Phe(3-CONH2)][Sar][Trp(βS-Me,7-OMe)][X1][Nle]))",> 1000,0.9,0.03,,
"CCCC[C@@H]1NC(=O)[C@@H]2CC[C@@H](C2)NC(=O)[C@H]([C@@H](C)c2c[nH]c3c(OC)cccc23)NC(=O)CN(C)C(=O)[C@H](Cc2ccc(C(N)=O)cc2)NC(=O)[C@H](Cc2ccc(C(N)=O)cc2)NC(=O)[C@](C)(CO)NC(=O)[C@H](Cc2c[nH]c3c(C#N)cccc23)NC(=O)[C@H](Cc2ccc3c(c2)C(=O)NC3)NC(=O)[C@H](CC(N)=O)NC(=O)[C@H]2C[C@H](OCC(=O)O)CN2C(=O)[C@H](Cc2cn(CC(=O)O)c3ccccc23)NC(=O)[C@@H]2CC[C@@H](O)CN2C(=O)[C@H](Cc2ccncc2)NC1=O [SEQ ID NO. 22] (cyclo([4Pal][Pip(5R-OH)][Trp(1-CH2COOH)][dHyp](Carboxymethyl)N[X20][Trp(7-CN)][αMeS][Phe(4-CONH2)][Phe(4-CONH2)][Sar][Trp(βS-Me,7-OMe)][X1][Nle]))",,0.6,,> 1000,0.09
